The source of these data is patent US9562044B2, “2-acylaminothiazole derivative or salt thereof” (ASTELLAS PHARMA INC., priority 2013, dated 2017).

The structures appear in SMILES notation. Where a name gives a salt, the structure may show the parent alone.

For one assay, the target named is T1, human c-Mpl receptor (Homo sapiens, UniProt P40238).
T1 construct: expressed in transfected cells
T1 sequence (P40238 26-635): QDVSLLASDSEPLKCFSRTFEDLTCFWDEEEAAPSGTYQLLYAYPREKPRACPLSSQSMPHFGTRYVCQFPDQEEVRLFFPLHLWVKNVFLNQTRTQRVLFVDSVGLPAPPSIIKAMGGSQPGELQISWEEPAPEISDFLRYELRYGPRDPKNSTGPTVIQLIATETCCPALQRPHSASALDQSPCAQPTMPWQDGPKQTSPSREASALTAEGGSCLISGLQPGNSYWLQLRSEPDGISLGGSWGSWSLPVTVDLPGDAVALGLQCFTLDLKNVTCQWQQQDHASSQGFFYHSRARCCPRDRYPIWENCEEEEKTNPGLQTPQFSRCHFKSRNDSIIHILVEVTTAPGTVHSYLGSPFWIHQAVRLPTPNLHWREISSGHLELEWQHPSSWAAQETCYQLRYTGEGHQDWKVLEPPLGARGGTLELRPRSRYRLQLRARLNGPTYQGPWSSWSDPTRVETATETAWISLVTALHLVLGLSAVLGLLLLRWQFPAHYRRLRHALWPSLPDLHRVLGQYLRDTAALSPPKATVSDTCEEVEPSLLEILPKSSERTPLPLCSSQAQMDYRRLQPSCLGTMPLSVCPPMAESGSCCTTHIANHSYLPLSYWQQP
Briefly: Human c-Mpl-introduced Ba/F3 cell proliferative activity. It counts as cell-based. The settings on record: concentration showing 30% proliferation; 100% = positive control at 1 μM. On the procedure: Evaluation of Human c-Mpl-Introduced Ba/F3 Cell Proliferative Activity
The human c-Mpl-introduced Ba/F3 cell proliferative activity was measured by the following method.
As a positive control, 1-(5-{[4-(4-chloro-2-thienyl)-5-{[(2R)-2-methylpyrrolidin-1-yl]methyl}-1,3-thiazol-2-yl]carbamoyl}-3-fluoropyridin-2-yl)piperidine-4-carboxylic acid hydrochloride, which is disclosed as Example 315 in Patent Document 1 and represented by the formula A1, was used. It is known that the compound has a good human c-Mpl-introduced Ba/F3 cell proliferative activity as disclosed in Table 1 of Patent Document 1.
a) Construction of Human c-Mpl Receptor Expression Vector
A human c-mpl receptor gene (GenBank Accession No. M90102.1) was introduced into an expression vector pEF-BOS (Nucleic Acids Res. 18, 5322, 1990).
b) Construction of Cell Stably Expressing Human c-Mpl Receptor
A human c-Mpl receptor expression vector was introduced into a Ba/F3 cell (RIKEN BRC: RCB0805). For the introduction, an electroporation method was used. pEF-BOS-c-mpl (10 μg), pSV2bsr (1 μg, Kaken Pharmaceutical Co., Ltd.) and 1×10^7 Ba/F3 cells were put into a cuvette having a gap width of 0.4 cm, and electroporated under the conditions of 1.5 kV (25 μF) by a Gene Pulser (registered trademark) (BioRad). The cells were cultured in an RPMI-1640 culture medium containing 0.5% WEHI conditioned media (BD Biosciences) and 10% fetal bovine serum for 3 days, and then cultured in an RPMI-1640 culture medium, to which 10 μg/mL blasticidin had been further added, for 30 days to acquire a drug-resistant clone.
c) Measurement of Cell Proliferative Activity
The cells obtained in b) above was cultured in an RPMI-1640 culture medium containing 0.5% WEHI conditioned media, 10% fetal bovine serum, and used. On the day before the experiment, test substances (final concentration of 100 nM to 10 μM) which had been dissolved in a culture medium for assay (RPMI-1640 culture medium containing 10% fetal bovine serum) were added to a 384-well plate (Lot No. 781185, Greiner Bio-One). The cells in the culture medium that had been replaced with a culture medium for assay were dispensed into a 384-well plate, to which the test substances had been added in advance, to 1×10^4 cells/well, and cultured at 37° C. and 5% CO2 overnight. On the experiment day, a solution of a Cell Counting Kit (Dojindo Laboratories) was added to each well of the 384-well plate and cultured at 37° C. and 5% CO2 for about 5 hours. Thereafter, the absorbance (absorption wavelength of 450 nm) of each well was measured using Safire^2™ (TECAN) and used as the index of the number of cells. Further, as a negative control, a well in which the test substance had been not added was prepared.
The absorbance of the well without the test substance was set to 0%, and the absorbance in the case where the positive control was added at a final concentration of 1 μM was set to 100%. From the absorbance in the case where the test substance had been added, a cell proliferation rate (%) was calculated. From the obtained results, the test substance concentration showing 30% proliferation was calculated as an EC30 value by a logistic regression method.

For a further assay, the system named is isolated rat bladder. Briefly: Transmural electrical field stimulation-induced contraction of isolated rat bladder. The settings on record: AUC of contractile response, value before treatment = 100%, SD female rat bladder strip, read-out: Enhancement rate of isolated bladder contraction (% of pre). As to the method: Effects on Transmural Electrical Field Stimulation-Induced Contraction of Isolated Rat Bladder
As an effect on the nerve stimulation-dependent bladder contraction in vitro, the effect of the Example compound of the present invention in the transmural electrical field stimulation-induced contraction of isolated rat bladder was measured by the following method. That is, from the bladder isolated from a Spraque-Dawley (SD) female rat (Japan SLC, Inc.), a longitudinal bladder strip having a width of about 2 mm and a length of about 10 mm was prepared. The prepared bladder strip was suspended in an organ bath filled with 10 mL of a Krebs-Henseleit solution. The Krebs-Henseleit solution was bubbled with 95% O2 and 5% CO2, and kept at 37° C. After stabilization at an initial tension of 1 g, contraction was induced twice with 60 mM KCl. The strip was washed with the Krebs-Henseleit solution and stabilized, and then contraction was induced with transmural electrical field stimulation at 20 V (stimulation frequency of 8 Hz, pulse width of 0.3 msec, and stimulation time of 10 seconds) by an electrical stimulation device (Nihon Kohden Corporation). At an interval of 2 minutes, transmural electrical field stimulation was repeated and the voltage was adjusted to make the contractile amplitude about 50% of the contractile response by 20 V. After stabilization of the contraction by the transmural electrical field stimulation, 10 μL of the test substance (final concentrations of 3 μM, 10 μM, and 30 μM), which had been dissolved in 100% dimethylsulfoxide in advance was added. The test substance was cumulatively administered at the next concentration after the contractile response at a lower concentration had been stabilized. The responses were put into a personal computer through PowerLab (registered trademark) (AD Instruments), and analyzed with LabChart (registered trademark) (AD Instruments). The area under the response of each contractile response (area under curve, AUC) was calculated and the value before the treatment with the test substance was set to 100%. Based on this, the enhancement rate of the isolated bladder contraction (% of pre) after the treatment with the test substance was calculated.
The enhancement rates of the isolated bladder contraction due to several 10 μM Example compounds which are the compounds of the formula (I) are shown in Table 2.

Turning to `CCCN(CCOC)Cc1sc(NC(=O)c2cnc(N3CCC(C(=O)O)CC3)cn2)nc1-c1cc(Cl)cs1` [Example 146], on human c-Mpl receptor, the “Test Example 2 EC30” value was determined as 0.82 µM.

Consider `CCOc1ccc(-c2nc(NC(=O)c3cnc(N4CCC(C(=O)O)CC4)cn3)sc2CN2CCC[C@H]2CC)cc1C(F)(F)F` [Example 203], for which the “Test Example 2 EC30” value on human c-Mpl receptor was more than 10 µM.

For the compound `Cc1cc(OC(F)(F)F)cc(-c2nc(NC(=O)c3cnc(N4CCC(F)(C(=O)O)CC4)cn3)sc2CN2CCC[C@H]2C)c1` [Example 3, 4-fluoro-1-{5-[(5-{[(2R)-2-methylpyrrolidin-1-yl]methyl}-4-[3-methyl-5-(trifluoromethoxy)phenyl]-1,3-thiazol-2-yl)carbamoyl]pyrazin-2-yl}piperidine-4-carboxylic acid dihydrochloride], the “Test Example 2 EC30” value on human c-Mpl receptor amounted to 4.8 µM.

For the compound `CCOC[C@@H]1CCCN1Cc1sc(NC(=O)c2cnc(N3CCC(C(=O)O)CC3)cn2)nc1-c1cc(F)c(OC)c(Cl)c1` [Example 69], the “Test Example 2 EC30” value at human c-Mpl receptor was more than 10 µM. The activity at 10 µM in the assay with isolated rat bladder stood at 152%.

Regarding `C[C@@H]1CCCCN1Cc1sc(NC(=O)c2cnc(N3CCC(C(=O)O)CC3)cn2)nc1-c1cc(Cl)cs1` [Example 142], the “Test Example 2 EC30” value on human c-Mpl receptor stood at 0.38 µM.

For `C[C@@H]1CCCN1Cc1sc(NC(=O)c2cnc(N3CCC(O)(C(=O)O)CC3)cn2)nc1-c1cc(Cl)cs1` [Example 129], the “Test Example 2 EC30” value on human c-Mpl receptor is 0.77 µM.

With `COc1ccc(-c2nc(NC(=O)c3cnc(N4CCC(C(=O)O)CC4)cn3)sc2CN2CCCC2C(C)C)cc1C(F)(F)F` (centres unmarked) [Example 188], the “Test Example 2 EC30” value at human c-Mpl receptor is more than 10 µM. Further, in the assay on isolated rat bladder, the activity at 10 µM was determined as 128%.

Regarding `CCOC[C@@H]1CCCN1Cc1sc(NC(=O)c2cnc(N3CCC(C(=O)O)CC3)cn2)nc1-c1cc(F)c(OC)c(C(F)(F)F)c1` [Example 84], on human c-Mpl receptor, the “Test Example 2 EC30” value is more than 10 µM. Moreover, the activity at 10 µM in the assay on isolated rat bladder was determined as 140%.

As to `CCCOc1ccc(-c2nc(NC(=O)c3cnc(N4CCC(C(=O)O)CC4)cn3)sc2CN2CCCC(C)(C)C2)cc1C(F)(F)F` [Example 27], at human c-Mpl receptor, the “Test Example 2 EC30” value is more than 10 µM.

In the case of `CC[C@@H]1CCCN1Cc1sc(NC(=O)c2cnc(N3CCC(C(=O)O)CC3)cn2)nc1-c1cc(Cl)cs1` [Example 196], the activity at 10 µM in the assay on isolated rat bladder was found to be 125%.

Consider `CCCC1CCCN1Cc1sc(NC(=O)c2cnc(N3CCC(C(=O)O)CC3)cn2)nc1-c1ccc(OC)c(C(F)(F)F)c1` (centres unmarked) [Example 158], for which, at human c-Mpl receptor, the “Test Example 2 EC30” value is more than 10 µM. Also, the activity at 10 µM with isolated rat bladder amounted to 125%.

Regarding `CC(C)Oc1ccc(-c2nc(NC(=O)c3cnc(N4CCC(C(=O)O)CC4)cn3)sc2CN2CCCC(C)(C)C2)cc1C(F)(F)F` [Example 20], the “Test Example 2 EC30” value on human c-Mpl receptor was more than 10 µM.

As for `COCCN(Cc1sc(NC(=O)c2cnc(N3CCC(C(=O)O)CC3)cn2)nc1-c1cc(C(F)(F)F)cc(C(F)(F)F)c1)CC(C)C` [Example 38], the “Test Example 2 EC30” value at human c-Mpl receptor was more than 10 µM.

Regarding `C[C@@H]1CCCN1Cc1sc(NC(=O)c2cnc(N3CCC(C(=O)O)CC3)cn2)nc1-c1ccc(N(C)C)c(C(F)(F)F)c1` [Example 11], the “Test Example 2 EC30” value at human c-Mpl receptor is more than 10 µM.

For `C[C@@H]1CCCN1Cc1sc(NC(=O)c2cnc(N3CCC(F)(C(=O)O)CC3)cn2)nc1-c1cc(F)cc(C(F)(F)F)c1` [Example 128], on human c-Mpl receptor, the “Test Example 2 EC30” value came out at 8.4 µM.

Turning to `COc1c(Cl)cc(-c2nc(NC(=O)c3cnc(N4CCC(C(=O)O)CC4)cn3)sc2CN2CCC[C@H]2C)cc1Cl` [Example 92], the “Test Example 2 EC30” value on human c-Mpl receptor was more than 10 µM. In addition, the activity at 10 µM with isolated rat bladder is 132%.

For the compound `COc1cc(-c2nc(NC(=O)c3cnc(N4CCC(C(=O)O)CC4)cn3)sc2CN2CCCC[C@H]2C)cc(C(F)(F)F)c1` [Example 2, 1-{5-[(4-[3-methoxy-5-(trifluoromethyl)phenyl]-5-{[(2R)-2-methylpiperidin-1-yl]methyl}-1,3-thiazol-2-yl)carbamoyl]pyrazin-2-yl}piperidine-4-carboxylic acid dihydrochloride], the “Test Example 2 EC30” value at human c-Mpl receptor was more than 10 µM.

For the compound `C[C@@H]1CCCN1Cc1sc(NC(=O)c2cnc(N3CCC(F)(C(=O)O)CC3)cn2)nc1-c1ccc(F)c(C(F)(F)F)c1` [Example 133], the “Test Example 2 EC30” value at human c-Mpl receptor came out at 1.1 µM.

With `COCCN(Cc1sc(NC(=O)c2cnc(N3CCC(C(=O)O)CC3)cn2)nc1-c1cc(Cl)cs1)CC(C)C` [Example 152], the “Test Example 2 EC30” value at human c-Mpl receptor stood at 0.58 µM.

On to `C[C@@H]1CCCN1Cc1sc(NC(=O)c2cnc(N3CCC(C(=O)O)CC3)cn2)nc1-c1cc(F)cc(C(F)(F)F)c1` [Example 150], for which, on human c-Mpl receptor, the “Test Example 2 EC30” value is more than 10 µM.

With `O=C(Nc1nc(-c2ccc(OCCCF)c(C(F)(F)F)c2)c(CN2CCC[C@H]2C(F)(F)F)s1)c1cnc(N2CCC(C(=O)O)CC2)cn1` [Example 204], at human c-Mpl receptor, the “Test Example 2 EC30” value is more than 10 µM.

On to `CC[C@@H]1CCCN1Cc1sc(NC(=O)c2cnc(N3CCC(C(=O)O)CC3)cn2)nc1-c1ccc(OCCCOC)c(C(F)(F)F)c1` [Example 21], for which the “Test Example 2 EC30” value on human c-Mpl receptor was more than 10 µM.

Take `CC[C@@H]1CCCN1Cc1sc(NC(=O)c2cnc(N3CCC(F)(C(=O)O)CC3)cn2)nc1-c1ccc(OC)c(C(F)(F)F)c1` [Example 125]: on human c-Mpl receptor, the “Test Example 2 EC30” value was more than 10 µM.

Regarding `CCOc1ccc(-c2nc(NC(=O)c3cnc(N4CCC(C(=O)O)CC4)cn3)sc2CN2CCC[C@H]2C)cc1C(F)(F)F` [Example 200], the “Test Example 2 EC30” value at human c-Mpl receptor was more than 10 µM.
